These results are taken from US4016280A, “4,4-Diarylpiperidine compositions and use” (Byk Gulden Lomberg Chemische Fabrik GmbH, priority 1969, dated 1977).

In data set [1] the test system is albino mouse. Nature of the data set: Antagonism in the albino mouse of tremorine tremor. The format is in vivo. Particulars: tremorine 15 mg/kg i.p., drug per os, Examples 28, 29: 50 to 300 mg/kg; for ED50: Mus musculus, po. The protocol: (§1) Antagonism in the albino mouse
(§2) of tion dation p.o.) i.p.)
(§3) *drugs administered per os
(§4) **administered in doses from 50 to 300 mg/kg

The nature of data set [2]: Acute toxicity in the albino mouse. Particulars: mouse, in vivo, Table 2. The protocol:
As stated above, the compounds of formula I have advantageous central nervous system stimulating properties. Side-effects, as they are encountered on administration of amphetamine-type stimulants, are produced to a much lesser extent by the 4,4-diphenylpiperidine compounds, if at all. […] The tests were carried out according to known and accepted pharmacological standard test methods.
a Acute toxicity 150 mg./kg. 100 mg./kg.

Data set [3] deals with albino mouse. Nature of the data set: Antagonism in the albino mouse of reserpine (preventive and curative ptosis/sedation). The class given is in vivo. The settings on record: reserpine 2mg/kg sc., drug per os; for ED50: Mus musculus, po. The protocol:
as §1
(§5) Com- Preventive Curative catalepsy
as §2, §3, §4

The subject of data set [4] is albino mouse. Description: General behaviour of the albino mouse with different doses. The class given is in vivo. Particulars: albino mouse; for Locomotory activity / Restlessness Stereotype / Salivation / Vigilance: different doses per os, Examples 28, 29: 50 to 300 mg/kg. Here is the method:
Acute toxi- General behaviour of the albino
city in the mouse with different doses*
as §3, §4

For data set [5], the system named is albino mouse. Description: Antagonism in the albino mouse of perphenazine catalepsy. The format is in vivo. Particulars: perphenazine 10 mg/kg p.o., drug per os, Examples 28, 29: 50 to 300 mg/kg; for ED50: Mus musculus, po. The protocol: as §1, §5, §2, §3, §4
Where [6] appears, read: iv, i.v., read-out: Acute toxicity in the albino mouse LD50 i.v.
The mark [7] stands for this setting: Examples 28, 29: 50 to 300 mg/kg, read-out: Reserpine antagonism, Curative Sedation ED50.
The mark [8] stands for this setting: Examples 28, 29: 50 to 300 mg/kg, read-out: Reserpine antagonism, Curative ptosis ED50.
The mark [9] stands for this setting: read-out: Reserpine antagonism, Preventive Sedation ED50.
Where [10] appears, read: read-out: Reserpine antagonism, Preventive ptosis ED50.
Setting [11] is: Examples 28, 29: 50 to 300 mg/kg.

Read-outs that look alike come from different tables or passages of the source.

For the compound `CCN1CCC(c2ccccc2)(c2ccccc2)CC1` [Example 3, 1-Ethyl-4,4-diphenylpiperidine], the ED50 is 1 mg/kg in the data set with albino mouse [1]; 50 mg/kg in the data set with albino mouse [3] (setting [7]); more than 50 mg/kg in the data set with albino mouse [3] (setting [8]); 5 mg/kg in the data set with albino mouse [3] (setting [9]); 5 mg/kg in the data set with albino mouse [3] (setting [10]); 2 mg/kg in the data set on albino mouse [5]. Moreover, the LD50 was found to be 45 mg/kg in data set [2] (setting [6]) and 150 mg/kg in data set [2] (po, p.o., read-out: Acute toxicity in the albino mouse LD50 p.o.). Moreover, the Locomotory activity result in the data set with albino mouse [4] is “(+)”. Moreover, the “Restlessness Stereotype” value in the data set with albino mouse [4] was “.phi. (no effect)”. For the same compound, the Salivation result in the data set on albino mouse [4] is “.phi. (no effect)”. The Vigilance entry with albino mouse [4] was “++”.
Regarding `c1ccc(CCN2CCC(c3ccccc3)(c3ccccc3)CC2)cc1` [Example 5, 1-Phenethyl-4,4-diphenylpiperidine], in the data set with albino mouse [1], the “Tremorine tremor antagonism ED50” value was “.phi. (no effect)”. The 50% lethal dose (LD50) in data set [2] (setting [6]) came out at 19 mg/kg. In addition, the ED50 with albino mouse [3] (setting [9]) turned out to be 3 mg/kg. The ED50 with albino mouse [3] (setting [10]) was 3 mg/kg. In addition, in the data set with albino mouse [3] (setting [11]), the “Reserpine antagonism, Curative Sedation ED50” value is “(+)” and the “Reserpine antagonism, Curative ptosis ED50” value is “(+)”. Also, in the data set on albino mouse [4], the Locomotory activity entry was “- (decrease)”, the “Restlessness Stereotype” value is “.phi. (no effect)”, the Salivation result was “.phi. (no effect)” and the Vigilance result is given as “+ (increase)”. Further, the “Remark under Locomotory activity (Ataxy)” value in the data set with albino mouse [4] (per os) is “Ataxy”.
`COCCCN1CCC(c2ccccc2)(c2ccccc2)CC1` [Example 7, 1-(3-Methoxypropyl)-4,4-diphenylpiperidine] displayed an ED50 in the data set on albino mouse [1] of 3 mg/kg. Besides, in data set [2] (setting [6]), the LD50 was determined as 30 mg/kg. Moreover, in the data set on albino mouse [4], the “Locomotory activity (in words)” value is reported as “only slightly increased”; the “Restlessness, stereotypia or salivation (in words)” value (shortened to “Restlessness … (in words)”) was “without causing restlessness, sterotypia or salivation”; the “Vigilance of the animal (in words)” value was “strong increase”; the Locomotory activity result is listed as “(+)”. In addition, in the data set on albino mouse [4], the “Restlessness Stereotype” value is on record as “.phi. (no effect)”, the Salivation result is listed as “.phi. (no effect)” and the Vigilance result is recorded as “++”.
In the data set with albino mouse [1], `OCCN1CCC(c2ccccc2)(c2ccccc2)CC1` [Example 9, 1-(2-Hydroxyethyl)-4,4-diphenylpiperidine] came in with an ED50 of 10 mg/kg. Besides, the LD50 in data set [2] (setting [6]) was 33 mg/kg. In addition, the ED50 with albino mouse [3] (setting [7]) was determined as 15 mg/kg. In the data set with albino mouse [3] (setting [9]), the ED50 was determined as 8 mg/kg. Besides, the ED50 in the data set with albino mouse [3] (setting [10]) is 10 mg/kg. For the same compound, the “Reserpine antagonism, Curative ptosis ED50” value with albino mouse [3] (setting [11]) was “(+)”. In the data set on albino mouse [4], the “Locomotory activity (in words)” value is given as “only slightly increased”; the “Restlessness … (in words)” value is “without causing restlessness, sterotypia or salivation”; the “Vigilance of the animal (in words)” value is “strong increase”; the Locomotory activity entry is reported as “(+)”. Also, in the data set with albino mouse [4], the “Restlessness Stereotype” value is “.phi. (no effect)”, the Salivation result is on record as “.phi. (no effect)” and the Vigilance result is “++”. Also, the 50% effect level with albino mouse [5] (ED50) was put at a dose of 15 mg/kg.
In the case of `c1ccc(CN2CCC(c3ccccc3)(c3ccccc3)CC2)cc1` [Example 10, 1-Benzyl-4,4-diphenylpiperidine], the LD50 in data set [2] (setting [6]) amounted to 20 mg/kg. In addition, in the data set on albino mouse [4], the “Locomotory activity (in words)” value is “only slightly increased”; the “Restlessness … (in words)” value was “without causing restlessness, sterotypia or salivation”; the “Vigilance of the animal (in words)” value is listed as “strong increase”; the Vigilance entry is on record as “++”.
`CC(=O)CN1CCC(c2ccccc2)(c2ccccc2)CC1` [Example 17, 1-Acetonyl-4,4-diphenylpiperidine] returned an ED50 in the data set with albino mouse [1] of 17 mg/kg. In data set [2] (setting [6]), the LD50 worked out at 34 mg/kg. Also, the ED50 with albino mouse [3] (setting [7]) was approximately 25 mg/kg. In the data set on albino mouse [3] (setting [8]), the ED50 is more than 25 mg/kg. Moreover, in the data set with albino mouse [3] (setting [9]), the ED50 was found to be 15 mg/kg. Also, the ED50 in the data set with albino mouse [3] (setting [10]) came to 12 mg/kg. Moreover, in the data set with albino mouse [4], the “Locomotory activity (in words)” value is “only slightly increased”; the “Restlessness … (in words)” value is reported as “without causing restlessness, sterotypia or salivation”; the “Vigilance of the animal (in words)” value is “strong increase”; the Locomotory activity entry is “(+)”. Moreover, in the data set with albino mouse [4], the “Restlessness Stereotype” value was “.phi. (no effect)”, the Salivation entry is given as “.phi. (no effect)” and the Vigilance entry is recorded as “++”. Further, the ED50 in the data set on albino mouse [5] was more than 25 mg/kg.
In turn, `c1ccc(C2(c3ccccc3)CCNCC2)cc1` [Example 19, 4,4-Diphenylpiperidine] yielded an ED50 in the data set with albino mouse [1] of 2 mg/kg. In data set [2] (setting [6]), the LD50 is 25 mg/kg. Besides, the ED50 with albino mouse [3] (setting [7]) turned out to be 10 mg/kg. The median effective dose (ED50) with albino mouse [3] (setting [8]) is more than 50 mg/kg. Besides, the ED50 in the data set on albino mouse [3] (setting [9]) was found to be 5 mg/kg. The ED50 with albino mouse [3] (setting [10]) is 10 mg/kg. In the data set with albino mouse [4], the “Locomotory activity (in words)” value is “only slightly increased”; the “Restlessness … (in words)” value was “without causing restlessness, sterotypia or salivation”; the “Vigilance of the animal (in words)” value was “strong increase”; the Locomotory activity result is given as “(+)”. In the data set with albino mouse [4], the “Restlessness Stereotype” value is given as “.phi. (no effect)”, the Salivation entry is on record as “.phi. (no effect)” and the Vigilance entry is “++”. The compound also registered an ED50 in the data set on albino mouse [5] of 20 mg/kg.
`OCCCN1CCC(c2ccccc2)(c2ccccc2)CC1` [Example 30, 1-(3-hydroxypropyl)-4,4-diphenylpiperidine]: the 50% effect level in the data set with albino mouse [1] (ED50) was put at a dose of 5 mg/kg. The LD50 in data set [2] (setting [6]) is 32 mg/kg. Further, the ED50 in the data set on albino mouse [3] (setting [9]) stood at 25 mg/kg. Further, the ED50 with albino mouse [3] (setting [10]) amounted to 25 mg/kg. In addition, in the data set with albino mouse [3] (setting [11]), the “Reserpine antagonism, Curative Sedation ED50” value is recorded as “.phi. (no effect)” and the “Reserpine antagonism, Curative ptosis ED50” value is given as “(+)”. Besides, in the data set on albino mouse [4], the “Locomotory activity (in words)” value is given as “only slightly increased”; the “Restlessness … (in words)” value is given as “without causing restlessness, sterotypia or salivation”; the “Vigilance of the animal (in words)” value is recorded as “strong increase”; the Locomotory activity entry is “+ (increase)”. For the same compound, in the data set with albino mouse [4], the “Restlessness Stereotype” value was “.phi. (no effect)”, the Salivation entry is “.phi. (no effect)” and the Vigilance result is listed as “++”. Moreover, in the data set on albino mouse [5], the ED50 was 5 mg/kg.
Turning to `CC(=O)CCN1CCC(c2ccccc2)(c2ccccc2)CC1` [Example 32, 1-(2-Acetoethyl)-4,4-diphenylpiperidine], the “Tremorine tremor antagonism ED50” value in the data set on albino mouse [1] is on record as 15 mg/kg. In the data set on albino mouse [3], the “Reserpine antagonism, Preventive Sedation ED50” value is listed as 15 mg/kg and the “Reserpine antagonism, Preventive ptosis ED50” value stood at 10 mg/kg. Besides, in the data set on albino mouse [3] (setting [11]), the “Reserpine antagonism, Curative Sedation ED50” value is ~ 50 mg/kg and the “Reserpine antagonism, Curative ptosis ED50” value is given as more than 60 mg/kg. Moreover, in the data set with albino mouse [4], the “Locomotory activity (in words)” value was “only slightly increased”; the “Restlessness … (in words)” value was “without causing restlessness, sterotypia or salivation”; the “Vigilance of the animal (in words)” value was “strong increase”; the Locomotory activity entry was “(+)”. Besides, in the data set with albino mouse [4], the “Restlessness Stereotype” value is recorded as “.phi. (no effect)”, the Salivation result is “.phi. (no effect)” and the Vigilance entry is “++”. Further, the “Perphenazine catalepsy antagonism ED50” value with albino mouse [5] was 45 mg/kg.
